Source: ChEMBL document CHEMBL5154668, “Modulating physicochemical properties of tetrahydropyridine-2-amine BACE1 inhibitors with electron-withdrawing groups: A systematic study” (Eur J Med Chem, 2022)

How the values were obtained:
[1] = Inhibition of calcium channel (unknown origin); design: species or system Homo sapiens
[2] = Inhibition of sodium channel (unknown origin); design: species or system Homo sapiens
Beta-secretase 1 = Beta-secretase 1 (Homo sapiens, UniProt P56817); experiment: Inhibition of BACE1 (unknown origin)
Chain of Beta-secretase 1 (P56817 whole entry): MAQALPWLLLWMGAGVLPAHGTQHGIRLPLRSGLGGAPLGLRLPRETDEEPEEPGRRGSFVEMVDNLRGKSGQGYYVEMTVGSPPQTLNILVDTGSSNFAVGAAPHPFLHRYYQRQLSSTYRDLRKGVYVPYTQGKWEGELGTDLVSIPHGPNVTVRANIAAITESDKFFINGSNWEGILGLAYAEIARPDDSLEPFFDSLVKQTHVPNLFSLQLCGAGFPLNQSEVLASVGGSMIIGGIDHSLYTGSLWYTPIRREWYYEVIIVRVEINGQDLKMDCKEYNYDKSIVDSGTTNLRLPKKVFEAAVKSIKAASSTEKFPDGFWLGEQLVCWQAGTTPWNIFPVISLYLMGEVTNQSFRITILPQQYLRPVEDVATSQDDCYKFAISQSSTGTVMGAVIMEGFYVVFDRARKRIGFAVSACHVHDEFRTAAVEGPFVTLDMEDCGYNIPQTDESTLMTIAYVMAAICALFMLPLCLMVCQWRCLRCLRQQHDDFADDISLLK

[3] = Efflux ratio of apparent permeability in MDCK-MDR1 cells; assay type: ADME, cell-based, Canis lupus familiaris; details: dog
[4] = Apparent permeability in MDCK-MDR1 cells; assay type: ADME, cell-based, Canis lupus familiaris; details: dog
[5] = target: Voltage-gated inwardly rectifying potassium channel KCNH2 (Homo sapiens, UniProt Q12809); experiment: Inhibition of hERG; assay type: toxicity
Chain of Voltage-gated inwardly rectifying potassium channel KCNH2 (Q12809 whole entry): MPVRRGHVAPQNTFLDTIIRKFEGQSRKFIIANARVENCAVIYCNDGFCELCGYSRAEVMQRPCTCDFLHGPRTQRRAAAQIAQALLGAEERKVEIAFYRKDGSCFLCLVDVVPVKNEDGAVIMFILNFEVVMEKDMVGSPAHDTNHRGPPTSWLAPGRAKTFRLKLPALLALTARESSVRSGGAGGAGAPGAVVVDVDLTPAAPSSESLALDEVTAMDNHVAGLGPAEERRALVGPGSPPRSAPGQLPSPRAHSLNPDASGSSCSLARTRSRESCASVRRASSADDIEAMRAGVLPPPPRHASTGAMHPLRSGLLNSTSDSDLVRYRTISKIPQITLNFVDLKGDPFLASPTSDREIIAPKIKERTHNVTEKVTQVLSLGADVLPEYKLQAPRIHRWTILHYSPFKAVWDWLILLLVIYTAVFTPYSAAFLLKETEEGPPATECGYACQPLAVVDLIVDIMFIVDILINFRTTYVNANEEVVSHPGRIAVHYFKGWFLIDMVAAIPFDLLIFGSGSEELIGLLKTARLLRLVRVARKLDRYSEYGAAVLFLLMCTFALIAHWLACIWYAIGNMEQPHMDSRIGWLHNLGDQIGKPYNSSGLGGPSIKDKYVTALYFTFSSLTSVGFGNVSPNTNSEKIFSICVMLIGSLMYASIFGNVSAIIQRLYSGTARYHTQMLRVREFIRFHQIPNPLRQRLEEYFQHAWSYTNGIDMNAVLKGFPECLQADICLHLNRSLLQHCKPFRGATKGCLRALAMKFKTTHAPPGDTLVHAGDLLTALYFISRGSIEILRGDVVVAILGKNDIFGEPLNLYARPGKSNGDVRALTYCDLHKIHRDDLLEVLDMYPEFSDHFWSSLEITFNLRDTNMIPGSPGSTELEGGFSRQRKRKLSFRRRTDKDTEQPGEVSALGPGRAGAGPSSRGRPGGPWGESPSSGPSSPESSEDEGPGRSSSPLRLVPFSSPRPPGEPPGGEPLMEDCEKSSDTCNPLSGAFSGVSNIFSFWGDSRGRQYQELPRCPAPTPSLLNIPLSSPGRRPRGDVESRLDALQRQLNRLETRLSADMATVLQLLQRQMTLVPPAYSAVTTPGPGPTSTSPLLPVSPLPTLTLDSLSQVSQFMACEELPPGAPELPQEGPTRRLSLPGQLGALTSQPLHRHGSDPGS

[6] = Dissociation constant, pKa of the compound by potentiometric titration method; assay type: physicochemical

Compound | IC50 [1] [nM] | IC50 [2] [nM] | IC50 (Beta-secretase 1) [nM] | efflux ratio [3] | Papp [4] [×10⁻⁶ cm/s] | pKa [6] | IC50 [5] [nM]
C[C@@]1(S(C)(=O)=O)CC[C@@](CF)(c2cc(NC(=O)c3cnc(OCF)cn3)ccc2F)N=C1N | > 10000 | 8510 |  |  |  |  | 
CC1CC[C@@](CF)(c2cc(-c3cc4c(cn3)OC(F)(F)O4)ccc2F)N=C1N (stereo not given in full) | 1950 | 650 | 59 |  |  |  | 
COc1cnc(-c2ccc(F)c([C@]3(CF)CC[C@@](C)(C#N)C(N)=N3)c2)cn1 | > 10000 | > 10000 | 54 |  |  |  | 
COc1cnc(C(=O)Nc2ccc(F)c([C@@]3(C)N=C(N)[C@](C)(S(C)(=O)=O)C[C@@H]3F)c2)cn1 | > 10000 | > 10000 |  |  |  |  | 
CN(C)C(=O)[C@]1(C)CC[C@@](CF)(c2cc(-c3ccc(F)cn3)ccc2F)N=C1N | > 10000 | > 10000 | 66 | 52 | 2.7 | 9.2 | 8320
C[C@@]1(S(C)(=O)=O)CC[C@@](CF)(c2nc(-c3cnc(OCF)cn3)ccc2F)N=C1N |  |  | 38 |  |  | 7.6 | 
COc1cnc(-c2ccc(F)c([C@]3(CF)CC[C@](C)(C#N)C(N)=N3)c2)cn1 | > 10000 | > 10000 | 851 |  |  |  | 
C[C@@]1(c2cc(NC(=O)c3ccc(F)cn3)ccc2F)CC[C@@](CF)(S(C)(=O)=O)C(N)=N1 | > 10000 | 6460 | 15 |  |  |  | 
C[C@@]1(c2cc(-c3ccc(Cl)cn3)ccc2F)CCC2(CC2)C(N)=N1 |  |  | 31 |  |  | > 11 | 
C[C@@]1(c2cc(-c3ccc(Cl)cn3)ccc2F)C[C@@H]2C[C@@H]2C(N)=N1 |  |  | 96 |  |  | > 11 | 
C[C@@]1(c2nc(-c3ccc(F)cn3)cs2)CC[C@@](C)(S(C)(=O)=O)C(N)=N1 |  |  | 25 | 22 | 37 | 7 | 
C[C@@]1(c2cc(-c3cnc(OCF)cn3)ccc2F)CCC(F)(F)C(N)=N1 | > 10000 | > 10000 | 12 |  |  |  | 

Second part, led by results:

IC50 [1] [nM] | IC50 [2] [nM] | IC50 (Beta-secretase 1) [nM] | efflux ratio [3] | Papp [4] [×10⁻⁶ cm/s] | pKa [6] | Compound | IC50 [5] [nM]
6610 | 4900 | 9.8 |  |  |  | COc1cnc(-c2ccc(F)c([C@]3(C)CC[C@@](C)(C#N)C(N)=N3)c2)cn1 | 
> 10000 | 2140 | 4 |  |  |  | CN(C)S(=O)(=O)[C@]1(C)CC[C@@](CF)(c2cc(-c3ccc(F)cn3)ccc2F)N=C1N | 
< 100 | 170 | 5.9 |  |  | 7.4 | C[C@@]1(c2cc(-c3cc4c(cn3)OC(F)(F)O4)ccc2F)CC[C@@](C)(S(=O)(=O)C(F)(F)F)C(N)=N1 | > 10000
> 10000 | 8710 | 4 |  |  |  | COc1cnc(-c2ccc(F)c([C@]3(C)CC[C@@](C)(S(C)(=O)=O)C(N)=N3)c2)cn1 | 
> 10000 | > 10000 | 12 | 15 | 54 | 6 | COc1cnc(-c2ccc(F)c([C@]3(C(F)F)CC[C@@](C)(C#N)C(N)=N3)c2)cn1 | > 10000
> 10000 | > 10000 | 8.9 |  |  |  | NC1=N[C@](CF)(c2cc(-c3cnc(OCF)cn3)ccc2F)CCC1(F)F | 
